Results published in patent US3932650A, “Trans-octahydropyridoindolobenzazepines as central nervous system depressants” (E. I. Du Pont de Nemours & Company, priority 1973, dated 1976).
Where two headings read alike, the source gives them in different places.

Assays:
[1] = test system: locomotor activity; assay: Decreased Locomotor Activity (L.M.A.), mouse; type: in vivo; conditions: mouse, po; minimal effective dose; read-out: L.M.A. MED
Protocol: (§1) Decreased Locomotor Activity (L.M.A.)
(§2) This reaction sign is measured subjectively by observing how an animal behaves when it is removed from an observation cage and placed on a table top. […] The degree of stimulation by the observer needed to produce active locomotion is rated on an arbitrary scale. This ranges from a score of -1 where only a slight touch of the animal's body is required to a -4 where the animal is unresponsive or minimally responsive to the application of a pain stimulus (pressure at the base of the tail). The minimal effective dose (MED) is the lowest oral dose producting an obvious decrease of locomotor activity (with a score of at least -1). Groups of 3 mice are given decreasing oral doses at 0.5 log intervals (300, 100, 30. . .etc.) until no behavioral effects are evident. Decrease of locomotor activity is indicative of general central nervous system depressant activity.

[2] = test system: locomotor activity; assay: Decreased Locomotor Activity (L.M.A.), rat; type: in vivo; conditions: po; minimal effective dose; read-out: L.M.A. MED
Protocol: as §1, §2

[3] = test system: eyelid closure (ptosis); assay: Ptosis, mouse; type: in vivo; conditions: mouse, po; passive ptosis; read-out: Ptosis MED
[4] = test system: eyelid closure (ptosis); assay: Ptosis, rat; type: in vivo; conditions: rat, po; passive ptosis; read-out: Ptosis MED
Description: Degree of eyelid closure is used as a measure of central nervous system depression. An animal is removed from its observation cage and allowed to remain outside the cage for 30 seconds. At the end of this time a rating of degree of eyelid closure is made on an arbitrary scale.

[5] = test system: catalepsy; assay: Catalepsy, mouse; type: in vivo; conditions: mouse, po; read-out: Catalepsy MED
Description: (§3) The ability of an animal to remain in an abnormal position is used as another indication of central nervous system depressant activity. A test animal is removed from its observation cage and positioned so that its hind legs are on the table top and its front legs rest on the side of the observation cage. If an animal maintains this position for at least 10 seconds, it is considered to be showing cataleptic behavior.

[6] = test system: catalepsy; assay: Catalepsy, rat; type: in vivo; conditions: rat, po; read-out: Catalepsy MED
Description: as §3

[7] = test system: TBZ-induced ptosis; assay: Tetrabenazine Antagonism (T.B.Z.A.), mouse; type: in vivo; conditions: 1 h; mouse, po; TBZ 40 mg/kg s.c. one hour after compound; read-out: T.B.Z.A. ED50
Protocol: (§4) Tetrabenazine Antagonism (T.B.Z.A.)
(§5) The tetrabenazine (TBZ) antagonism test is used to test for potential antidepressant-like activity in rodents. One hour after oral administration of a test compound, a 40 mg/kg dose of TBZ is given subcutaneously. Thirty minutes after TBZ administration, the mice are placed in the center of a circle; the diameter of the circle is twice the body length of the mouse or rat. After 30 seconds, a reading is made of the degree of ptosis and whether the animal has moved out of the circle. Animals that have received only TBZ will show marked ptosis and immobility. Tricyclic antidepressants of the imipramine type will antagonize the ptosis but not the immobility. Antidepressants of the amphetamine or monoamine oxidase inhibitory type will antagonize both the ptosis and immobility induced by TBZ. The ED50 is the dose producing antagonism of TBZ-induced ptosis, but not of TBZ-induced immobility, in 50% of the animals.

[8] = test system: TBZ-induced ptosis; assay: Tetrabenazine Antagonism (T.B.Z.A.), rat; type: in vivo; conditions: 1 h; rat, po; TBZ 40 mg/kg s.c. one hour after compound; read-out: T.B.Z.A. ED50
Protocol: as §4, §5

[9] = test system: fear / feeding in approach-avoidance conflict; assay: Rat Conflict (Approach-Avoidance) Test; type: in vivo; conditions: rat, po; after 1 or 2 hours; read-out: Conflict MED
Protocol: Rat Conflict (Approach-Avoidance) Test (Conflict)
Results given in: mg/kg po/rat
Food deprived rats are trained to pass from one compartment to an adjacent one to obtain food. The training consists of 3 exposures to the test situation on day one of the experiment. The rats are given limited (1-2 hr) free access to food in their home cages on day one and are then food deprived for at least 18 hours. On day two of the experiment, the rats are given a control exposure to the test situation followed by a second exposure after one-half to 1 hour in which they are shocked after crossing and eating. Groups of 6-8 rats are then dosed orally with solvent or test compound and then re-exposed to the test situation after 1 or 2 hours.
Compounds showing minor tranquilizer (anxiolytic) activity in man such as diazepam and meprobamate produce an apparent decreased fear in the test animals so that they cross to obtain food despite having received a shock earlier. This effect is dose-related (and the MED is the minimum dose at which this effect is obtained); rats dosed with solvent only consistently show a high level of fear as evidenced by decreased mobility and absence of feeding when placed in the test situation after receiving a shock.

[10] = test system: conditioned avoidance response; assay: Conditioned Avoidance Response (C.A.R.), mouse; type: in vivo; conditions: mouse, po; block of C.A.R. in 50% of animals; 1, 2, and 4 hours; read-out: C.A.R. ED50
Protocol: (§6) Mouse and Rat Conditioned Avoidance Response (C.A.R.):
(§7) Mice and rats are trained to jump out of a pit onto a ledge to avoid shock when presented with a light and sound conditioned stimulus. The animals are tested 1, 2, and 4 hours after administration of the test compound. Three to four dose levels and groups of 4-8 animals/dose are used. The ED50 is the dose producing a block of the C.A.R. in 50% of the animals. Blocking of the C.A.R. at non-toxic doses appears to correlate with major tranquilizer activity in man.

[11] = test system: conditioned avoidance response; assay: Conditioned Avoidance Response (C.A.R.), rat; type: in vivo; conditions: rat, po; block of C.A.R. in 50% of animals; 1, 2, and 4 hours; read-out: C.A.R. ED50
Protocol: as §6, §7

[12] = test system: conditioned avoidance response; assay: Dog Conditioned Avoidance Response (C.A.R.); type: in vivo; conditions: Canis lupus familiaris; dog, po; 5 or more incorrect responses in 50% of animals; 1, 2, and 4 hours; read-out: C.A.R. ED50
Protocol: Dog Conditioned Avoidance Response (C.A.R.):
Results given in: mg/kg po/dog
Dogs are trained to raise a forelimb when presented with a conditioned stimulus (light) in order to avoid an electric shock. Blocks of 10 trials are given to groups of 4 dogs during a pretreatment period and at 1, 2, and 4 hours after oral administration of the test compound. The ED50 values are calculated as the dose causing 50% of the animals to show 5 or more incorrect responses. Blocking of the C.A.R. at non-toxic doses appears to correlate with major tranquilizer activity in man.

[13] = test system: taming; assay: Rhesus Monkey Taming Effects; type: in vivo; conditions: Macaca mulatta; rhesus monkey, po; read-out: Taming MED
Protocol: Rhesus Monkey Taming Effects (Taming):
Results given in: mg/kg po/monkey
Compounds are administered orally to groups of 6 rhesus monkeys. The behavior of the animals is then evaluated by observational means. Taming effects are determined by the ability of the observer to approach and touch the monkey. Compounds with major tranquilizer activity in man can produce a state of passive tameness in the rhesus monkey wherein it can be touched without provoking any of the threatening or aggressive behavior seen in the normal animal. The MED is the minimal oral dose at which some taming effect can be observed.

[14] = test system: phenyl-p-benzoquinone-induced writhing; assay: Phenylquinone Writhing (P.Q.W.); type: in vivo, mouse; conditions: 0.5 h; mouse, po; phenyl-p-benzoquinone 2.5 mg/kg i.p. 30 minutes after compound; read-out: P.Q.W. ED50
[15] = test system: locomotor activity; assay: LMA, comparison with chlorpromazine; type: in vivo; conditions: read-out: LMA (*ED50?)
[16] = test system: catalepsy; assay: Catalepsy, comparison with chlorpromazine; type: in vivo; conditions: read-out: Catalepsy (*ED50?)
[17] = test system: eyelid closure (ptosis); assay: Ptosis, comparison with chlorpromazine; type: in vivo; conditions: read-out: Ptosis (*ED50?)

`c1ccc2c(c1)CCc1cccc3c1N2[C@@H]1CCN(CC2CC2)C[C@@H]31` (relative stereo) [Example 2, trans-3-(Cyclopropylmethyl)-1,2,3,4,4a,8,9,14a-octahydropyrido[4',3':2,3]indolo[1,7-ab][1]benzazepine] gave a minimal effective dose [1] of 3 mg/kg, a minimal effective dose [2] of 1 mg/kg and a minimal effective dose [3] of 10 mg/kg. It also gave a minimal effective dose [4] of 3 mg/kg, a minimal effective dose [5] of 3 mg/kg and a minimal effective dose [6] of 3 mg/kg. The ED50 [7] was over 100 mg/kg, the ED50 [8] was over 100 mg/kg and the minimal effective dose [9] was over 40 mg/kg. For the same molecule, the ED50 [10] was 0.7 mg/kg, the ED50 [11] was 0.7 mg/kg and the ED50 [12] was 3 mg/kg. For the same molecule, the minimal effective dose [13] was 1 mg/kg and the ED50 [14] was 2.3 mg/kg.

For `CC(C)CN1CC[C@@H]2[C@@H](C1)c1cccc3c1N2c1ccccc1CC3` (relative stereo) [Example 5, trans-1,2,3,4,4a,8,9,14a-Octahydro-3-isobutylpyrido[4',3':2,3]indolo[1,7-ab][1]benzazepine], the minimal effective dose [1] was 2 mg/kg, the minimal effective dose [2] was 4 mg/kg and the minimal effective dose [3] was 8 mg/kg. It also gave a minimal effective dose [4] of 5 mg/kg, a minimal effective dose [5] of 2 mg/kg and a minimal effective dose [6] of 6 mg/kg. The ED50 [14] was 1.75 mg/kg, the ED50 ([15]; species not given) was 4 mg/kg and the ED50 ([16]; species not given) was 6 mg/kg. It also gave an ED50 ([17]; species not given) of 5 mg/kg.

`CN(C)CCCN1c2ccccc2Sc2ccc(Cl)cc21` [Chlorpromazine] showed an ED50 [15] of 5 mg/kg, an ED50 [16] of 6 mg/kg and an ED50 [17] of 6 mg/kg.
